What was measured:
Ca127 cells = assay: Calcium imaging of Ca127 cells; assay type: cell-based; details: for effect of inhibitor pre-treatment on calcium influx in response to thymol: Ca127 cells, pre-treatment followed by thymol 400 μM
Source text: (§1) FIGS. 6A-D: Calcium imaging of CHO cells overexpressing TRPA1 (FIG. 6A) or TRPV1 (FIG. 6B). Calcium imaging of cancer cell lines, Ca127 (FIG. 6C) and HeLa (FIG. 6D).
(§2) […]. […] […].

TRPV1 = target: T1, TRPV1 (Homo sapiens, UniProt Q8NER1); assay: Calcium imaging of CHO cells overexpressing TRPV1; assay type: cell-based
T1 construct: expressed in transfected cells; host or cells: CHO cells
T1 sequence (Q8NER1 whole entry, species assumed): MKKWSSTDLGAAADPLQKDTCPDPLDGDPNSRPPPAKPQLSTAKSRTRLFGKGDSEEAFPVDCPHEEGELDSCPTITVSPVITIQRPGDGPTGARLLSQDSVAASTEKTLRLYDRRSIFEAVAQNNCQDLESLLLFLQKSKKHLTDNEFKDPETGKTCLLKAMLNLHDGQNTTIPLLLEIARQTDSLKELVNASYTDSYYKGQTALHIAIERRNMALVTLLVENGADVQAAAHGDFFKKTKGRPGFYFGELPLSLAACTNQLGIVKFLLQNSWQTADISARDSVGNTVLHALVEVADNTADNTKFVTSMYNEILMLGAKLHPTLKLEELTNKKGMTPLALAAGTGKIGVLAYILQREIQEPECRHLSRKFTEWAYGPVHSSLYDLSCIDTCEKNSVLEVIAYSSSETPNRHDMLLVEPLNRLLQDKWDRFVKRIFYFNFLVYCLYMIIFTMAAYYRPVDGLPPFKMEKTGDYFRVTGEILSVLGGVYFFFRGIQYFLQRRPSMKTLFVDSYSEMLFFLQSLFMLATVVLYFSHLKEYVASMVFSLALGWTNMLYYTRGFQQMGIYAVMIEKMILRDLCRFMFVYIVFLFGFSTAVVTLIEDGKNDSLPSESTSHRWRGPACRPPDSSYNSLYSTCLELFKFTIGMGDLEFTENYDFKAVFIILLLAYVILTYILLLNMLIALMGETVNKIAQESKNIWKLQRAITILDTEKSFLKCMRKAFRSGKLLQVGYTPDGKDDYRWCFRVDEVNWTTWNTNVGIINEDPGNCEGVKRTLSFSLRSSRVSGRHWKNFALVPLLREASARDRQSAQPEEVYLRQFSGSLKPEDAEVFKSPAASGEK
Source text: as §1

HeLa cells [1] = assay: Clonogenic assay, HeLa cells
Source text: (§3) FIGS. 3A-D: Clonogenic Assay of Ca127 (FIGS. 3A and 3C) and HeLa cells (FIGS. 3B and 3D).

HeLa-derived tumors = assay: HeLa mouse xenograft, intra-tumor injection
cleaved PARP (c-PARP) [2] = assay: Western blot of cleaved PARP, Ca127 cells; assay type: cell-based; details: increasing concentrations of thymol
Source text: as §2

cleaved PARP (c-PARP) [3] = assay: Western blot of cleaved PARP, HeLa cells; assay type: cell-based; details: increasing concentrations of thymol
Source text: as §2

[4] = tested on: solid tumors (breast, lung, prostate, colon, cervical); assay: Anti-tumor effects against solid tumors (inventor's data); details: all types of solid tumors (breast, lung, prostate, colon, cervical)
Source text: However head and neck cancer is 90% of squamous cell origin.

Ca127 = assay: Clonogenic assay, Ca127 cells
Source text: as §3

TRPA1 = target: T2, TRPA1 (Homo sapiens, UniProt O75762); assay: Calcium imaging of CHO cells overexpressing TRPA1; assay type: cell-based
T2 construct: expressed in transfected cells; host or cells: CHO cells
T2 sequence (O75762 whole entry, species assumed): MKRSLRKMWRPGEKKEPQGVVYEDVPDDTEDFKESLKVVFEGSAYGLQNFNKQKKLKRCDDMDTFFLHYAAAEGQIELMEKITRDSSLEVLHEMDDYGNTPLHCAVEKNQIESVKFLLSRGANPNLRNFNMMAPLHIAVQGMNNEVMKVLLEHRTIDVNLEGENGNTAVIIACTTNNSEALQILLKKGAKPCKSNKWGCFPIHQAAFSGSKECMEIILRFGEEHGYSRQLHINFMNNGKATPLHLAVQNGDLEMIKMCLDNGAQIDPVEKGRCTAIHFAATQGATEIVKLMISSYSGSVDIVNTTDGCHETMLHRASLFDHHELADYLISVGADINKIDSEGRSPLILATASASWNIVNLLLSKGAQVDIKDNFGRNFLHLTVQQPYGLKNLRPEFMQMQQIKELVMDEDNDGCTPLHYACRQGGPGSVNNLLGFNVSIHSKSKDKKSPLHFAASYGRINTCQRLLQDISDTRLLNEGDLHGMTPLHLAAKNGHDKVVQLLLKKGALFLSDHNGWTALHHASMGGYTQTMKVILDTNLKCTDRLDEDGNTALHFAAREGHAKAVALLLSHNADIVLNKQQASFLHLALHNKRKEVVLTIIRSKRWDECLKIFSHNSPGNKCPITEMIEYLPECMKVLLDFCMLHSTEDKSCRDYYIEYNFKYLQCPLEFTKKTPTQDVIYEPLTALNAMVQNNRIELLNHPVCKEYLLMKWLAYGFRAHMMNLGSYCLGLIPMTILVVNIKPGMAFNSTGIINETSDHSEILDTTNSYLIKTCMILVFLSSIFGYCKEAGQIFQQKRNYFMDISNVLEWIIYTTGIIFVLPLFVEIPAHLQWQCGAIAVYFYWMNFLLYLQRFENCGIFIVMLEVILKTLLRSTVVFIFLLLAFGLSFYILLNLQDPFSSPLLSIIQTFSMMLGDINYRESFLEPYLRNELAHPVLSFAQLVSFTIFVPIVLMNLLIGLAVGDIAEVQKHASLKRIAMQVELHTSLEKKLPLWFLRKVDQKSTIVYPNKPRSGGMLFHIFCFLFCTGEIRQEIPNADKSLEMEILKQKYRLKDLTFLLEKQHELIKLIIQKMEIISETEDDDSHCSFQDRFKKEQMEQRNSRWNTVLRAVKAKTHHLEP
Source text: as §1

Ca127 (OSCC) cells = assay: Cell viability / proliferation (MTS) assay, Ca127 cells; assay type: cell-based; details: treated 24 hours, p<0.001, read-out: IC50, anti-proliferative effect
HeLa cells [5] = assay: Calcium imaging of HeLa cells; assay type: cell-based; details: negative for TRPA1, thymol treatment
Source text: as §1, §2

[6] = tested on: HeLa (Cervical cancer) cells; assay: Cell viability / proliferation assay, HeLa cells; details: Homo sapiens, 48 h, read-out: IC50, anti-proliferative effect
Ca127-derived tumors = assay: Ca127 mouse xenograft, intra-tumor injection

SMILES: CC(C)c1ccc(NC(=O)Cn2cnc3c2c(=O)n(C)c(=O)n3C)cc1 [HC030031]
- effect of inhibitor pre-treatment on calcium influx in response to thymol (Ca127 cells): nearly abolished all calcium influx

SMILES: O=C(O)c1ccc(S(=O)(=O)N(Cc2ccc(OC(F)(F)F)cc2)c2ncc(C(F)(F)F)cc2Cl)cc1 [RQ00203078]
- effect of inhibitor pre-treatment on calcium influx in response to thymol (Ca127 cells): reduced calcium influx

SMILES: Cc1ccc(C(C)C)c(O)c1 [thymol, 2-isopropyl-5-methylphenol]
- TRPV1 channel activation (calcium imaging) (TRPV1): not TRPV1 channels
- colony formation (HeLa cells [1]; HeLa (FIGS. 3A-D), one minute exposure, 10 days): abolished colony formation
- colony formation (HeLa cells [1]; HeLa, single two minute exposure, 4.3 mM, ten days): abolished colony formation
- median tumor volume (HeLa-derived tumors; Day 26 as printed, thymol 4.3 mM every other day for 22 days, control 900 mm^3): 500 mm^3
- tumor volume compared to control (HeLa-derived tumors; by day 18, remained through day 22, 4.3 mM intra-tumor every other day, p<0.001): significant reduction
- average tumor volume (HeLa-derived tumors; thymol 4.3 mM intra-tumor every other day for 22 days, control 900 mm^3): 500 mm^3
- activation of cleaved PARP (apoptosis) (cleaved PARP (c-PARP) [2]): dose-dependent activation
- activation of cleaved PARP (apoptosis) (cleaved PARP (c-PARP) [3]): dose-dependent activation
- calcium influx (Ca127 cells; Ca127 cells expressing TRPA1, thymol 400 μM): small calcium influx
- anti-tumor effects [4]: anti-tumor effects
- colony formation (Ca127; Ca127 (FIGS. 3A-D), one minute exposure, 10 days): abolished colony formation
- colony formation (Ca127; Ca127, single two minute exposure, 4.3 mM, ten days): abolished colony formation
- TRPA1 channel activation (calcium imaging) (TRPA1): activates TRPA1 channels
- IC50 (Ca127 (OSCC) cells): 400 µM
- calcium response (HeLa cells [5]): did not respond
- IC50 [6]: 400 µM
- median tumor volume (Ca127-derived tumors; Day 26, thymol 4.3 mM every other day, control 400 mm^3): 100 mm^3
- tumor volume compared to control (Ca127-derived tumors; by day 16, 4.3 mM intra-tumor every other day, p<0.001): significant reduction
- average tumor volume (Ca127-derived tumors; thymol 4.3 mM intra-tumor every other day for 26 days, control 400 mm^3): 90 mm^3

From patent US20200069607A1, “MOUTHWASH FOR TREATING ORAL CANCERS” (THE BOARD OF REGENTS OF THE UNIVERSITY OF TEXAS SYSTEM, priority 2016, published 2020)
